Source: patent publication US20110082157A1, “Piperidinylamino-Thieno [2,3-D] Pyrimidine Compounds” (priority 2004, published 2011)
Where a name gives a salt, the structure may show the parent alone.

Experiments:
[1] = biological target: hERG (Homo sapiens, UniProt Q12809); test: hERG % inhibition at 1 uM
[2] = biological target: 5HT2B (Homo sapiens, UniProt P41595); test: 5HT2B binding (Ki of Biological Data Table)
[3] = HLM T1/2; details: human, liver microsomes

Sequence of hERG (Q12809 whole entry): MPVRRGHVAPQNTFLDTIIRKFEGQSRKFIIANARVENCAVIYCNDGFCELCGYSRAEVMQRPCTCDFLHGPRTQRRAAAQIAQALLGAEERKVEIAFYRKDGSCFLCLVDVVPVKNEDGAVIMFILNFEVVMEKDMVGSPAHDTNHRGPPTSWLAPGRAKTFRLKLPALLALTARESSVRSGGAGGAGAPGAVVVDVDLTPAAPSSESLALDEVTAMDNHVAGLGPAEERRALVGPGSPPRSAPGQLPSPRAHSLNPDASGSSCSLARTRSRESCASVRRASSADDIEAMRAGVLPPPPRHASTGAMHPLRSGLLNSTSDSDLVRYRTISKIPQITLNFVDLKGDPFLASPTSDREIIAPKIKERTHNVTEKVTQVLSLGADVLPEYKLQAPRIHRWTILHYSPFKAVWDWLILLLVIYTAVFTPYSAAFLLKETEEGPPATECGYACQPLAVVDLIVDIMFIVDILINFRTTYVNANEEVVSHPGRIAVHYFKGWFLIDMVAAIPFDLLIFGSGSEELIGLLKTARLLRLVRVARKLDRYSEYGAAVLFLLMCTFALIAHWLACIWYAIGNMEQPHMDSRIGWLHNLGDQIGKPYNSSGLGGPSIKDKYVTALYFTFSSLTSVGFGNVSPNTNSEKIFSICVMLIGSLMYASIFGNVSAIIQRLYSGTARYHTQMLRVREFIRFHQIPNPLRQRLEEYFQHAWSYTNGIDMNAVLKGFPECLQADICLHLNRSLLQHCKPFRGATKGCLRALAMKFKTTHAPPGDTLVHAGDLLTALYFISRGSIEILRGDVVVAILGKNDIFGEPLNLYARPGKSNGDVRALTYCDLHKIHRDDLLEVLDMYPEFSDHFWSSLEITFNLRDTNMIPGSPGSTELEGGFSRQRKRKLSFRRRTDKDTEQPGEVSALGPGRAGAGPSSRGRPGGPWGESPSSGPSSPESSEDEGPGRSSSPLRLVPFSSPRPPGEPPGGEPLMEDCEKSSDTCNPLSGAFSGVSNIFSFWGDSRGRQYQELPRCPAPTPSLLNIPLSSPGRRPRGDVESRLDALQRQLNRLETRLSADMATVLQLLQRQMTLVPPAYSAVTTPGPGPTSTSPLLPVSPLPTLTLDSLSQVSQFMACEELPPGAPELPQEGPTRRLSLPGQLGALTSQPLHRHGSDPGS
Sequence of 5HT2B (P41595 whole entry, species assumed): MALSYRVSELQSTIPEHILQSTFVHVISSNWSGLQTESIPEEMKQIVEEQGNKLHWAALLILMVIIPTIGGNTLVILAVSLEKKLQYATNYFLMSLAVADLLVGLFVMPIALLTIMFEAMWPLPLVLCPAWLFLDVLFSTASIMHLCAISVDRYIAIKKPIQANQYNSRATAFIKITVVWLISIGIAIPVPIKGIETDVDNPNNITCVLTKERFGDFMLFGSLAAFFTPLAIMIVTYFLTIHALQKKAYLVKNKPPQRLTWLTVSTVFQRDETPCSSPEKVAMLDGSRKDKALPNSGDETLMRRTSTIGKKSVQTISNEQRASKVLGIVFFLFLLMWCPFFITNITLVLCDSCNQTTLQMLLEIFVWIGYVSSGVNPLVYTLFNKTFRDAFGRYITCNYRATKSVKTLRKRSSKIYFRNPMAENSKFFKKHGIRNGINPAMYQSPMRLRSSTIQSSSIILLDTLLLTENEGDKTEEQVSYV

half-life [3]	SMILES	further results
–	Fc1ccccc1CN1CCC(Nc2ncnc3sc4c(c23)CCCC4)CC1 [Example B4, N-(1-(2-fluorobenzyl)piperidin-4-yl)5,6,7,8-tetrahydro-benzo[4,5]thieno[2,3-d]pyrimidin-4-amine]	hERG (% Inhibition at 1 uM) [1]: hERG (% Inhibition at 1 uM): 58.5
–	CN1CCC(N(C)c2ncnc3sc4c(c23)CCCC4)CC1 [Example B5, N-methyl-N-(1-methylpiperidin-4-yl)5,6,7,8-tetrahydro-benzo[4,5] thieno[2,3-d]pyrimidin-4-amine]	% at 10 nM (5HT2B) [2]: -2%; % at 100 nM (5HT2B) [2]: 11%; % at 1000 nM (5HT2B) [2]: 67%
< 15 min	c1ccc(CN2CCC(Nc3ncnc4scc(-c5ccccc5)c34)CC2)cc1 [Example B6, N-(1-benzylpiperidin-4-yl)-5-phenylthieno [2,3-d]pyrimidin-4-amine]	% at 10 nM (5HT2B) [2]: 38%; % at 100 nM (5HT2B) [2]: 91%; % at 1000 nM (5HT2B) [2]: 101%
–	Oc1cc(C(F)(F)F)cnc1N1CCC(Nc2ncnc3scc(-c4ccccc4)c23)CC1 [Example B7, 2-(4-(5-phenylthieno [2,3-d]pyrimidin-4-ylamino)piperidin-1-yl)-5-(trifluoromethyl) pyridin-3-ol]	% at 10 nM (5HT2B) [2]: 3%; % at 100 nM (5HT2B) [2]: 4%; % at 1000 nM (5HT2B) [2]: 30%
–	c1ccc(CN2CCC(Nc3ncnc4sccc34)CC2)cc1 [Example B8, N-(1-benzylpiperidin-4-yl)thieno [2,3-d]pyrimidin-4-amine]	% at 10 nM (5HT2B) [2]: 13%; % at 100 nM (5HT2B) [2]: 62%; % at 1000 nM (5HT2B) [2]: 96%
–	Cc1csc2ncnc(NC3CCN(Cc4ccccc4)CC3)c12 [Example B9, N-(1-benzylpiperidin-4-yl)-5-methylthieno [2,3-d]pyrimidin-4-amine]	% at 10 nM (5HT2B) [2]: 15%; % at 100 nM (5HT2B) [2]: 62%; % at 1000 nM (5HT2B) [2]: 97%
< 15 min	CC(c1cccc(F)c1)N1CCC(Nc2ncnc3sc4c(c23)CCCC4)CC1 (centres unmarked) [Example B10, N-(1-(1-(3-fluorophenyl)ethyl)piperidin-4-yl)-(5,6,7,8-tetrahydro-benzo[4,5]thieno[2,3-d]pyrimidin-4-amine, dihydrochloride]	–
< 15 min	Cc1sc2ncnc(NC3CCN(C(C)c4cccc(F)c4)CC3)c2c1C (centres unmarked) [Example B13, N-(1-(1-(3-fluorophenyl)ethyl)piperidin-4-yl)-5,6-dimethylthieno[2,3-d] pyrimidin-4-amine, dihydrochloride]	–
< 15 min	CC(c1cccc(F)c1)N1CCC(C)(Nc2ncnc3sc4c(c23)CCCC4)CC1 (centres unmarked) [Example B15, N-(1-(1-(3-fluorophenyl)ethyl)-4-methylpiperidin-4-yl) 5,6,7,8-tetrahydro-benzo[4,5]thieno[2,3-d]pyrimidin-4-amine, dihydrochloride]	–
< 15 min	CC(C)CC(c1cccc(F)c1)N1CCC(Nc2ncnc3sc4c(c23)CCCC4)CC1 (centres unmarked) [Example B16, N-(1-(1-(3-fluorophenyl)-3-methylbutyl)piperidin-4-yl)5,6,7,8-tetrahydro-benzo[4,5]thieno[2,3-d] pyrimidin-4-amine, dihydrochloride]	–
< 15 min	CC(C)Cc1cc2c(NC3CCN(C(C)c4c(F)cc(F)cc4F)CC3)ncnc2s1 (centres unmarked) [Example B19, N-(1-(1-(2,4,6-trifluorophenyl)ethyl)piperidin-4-yl)-6-isobutylthieno[2,3-d]pyrimidin-4-amine, dihydrochloride]	hERG (% Inhibition at 1 uM) [1]: hERG (% Inhibition at 1 uM): 50.2
< 15 min	CC(C)Cc1cc2c(NC3CCN(C(C)c4c(F)cccc4F)CC3)ncnc2s1 (centres unmarked) [Example B20, N-(1-(1-(2,6-difluorophenyl)ethyl)piperidin-4-yl)-6-isobutylthieno[2,3-d] pyrimidin-4-amine, dihydrochloride]	hERG (% Inhibition at 1 uM) [1]: hERG (% Inhibition at 1 uM): 73.4
< 15 min	CC(c1c(F)cccc1F)N1CCC(Nc2ncnc3sc4c(c23)CCCC4)CC1 (centres unmarked) [Example B21, N-(1-(1-(2,6-difluorophenyl)ethyl)piperidin-4-yl)5,6,7,8-tetrahydro-benzo[4,5]thieno[2,3-d]pyrimidin-4-amine, dihydrochloride]	–
< 15 min	CC(C#N)(c1cccc(F)c1)N1CCC(Nc2ncnc3sc4c(c23)CCCC4)CC1 (centres unmarked) [Example B23, 2-(3-fluorophenyl)-2-(4-(5,6,7,8-tetrahydro-benzo[4,5]thieno[2,3-d]pyrimidin-4-ylamino)piperidin-1-yl) propanenitrile, dihydrochloride]	–
< 15 min	CC(C)(c1cccc(F)c1)N1CCC(Nc2ncnc3sc4c(c23)CCCC4)CC1 [Example B24, N-(1-(2-(3-fluorophenyl)propan-2-yl)piperidin-4-yl)5,6,7,8-tetrahydro-benzo[4,5]thieno[2,3-d]pyrimidin-4-amine, dihydrochloride]	–
< 15 min	Fc1cccc(CNCCCNc2ncnc3sc4c(c23)CCCC4)c1 [Example B25, N-(3-(3-fluorobenzylamino)propyl)5,6,7,8-tetrahydro-benzo[4,5]thieno[2,3-d]pyrimidin-4-amine, dihydrochloride]	–

half-life [3]	SMILES	further results
< 15 min	CC(NCCCNc1ncnc2sc3c(c12)CCCC3)c1cccc(F)c1 (centres unmarked) [Example B26, N-(3-(1-(3-fluorophenyl)ethylamino)propyl) 5,6,7,8-tetrahydro-benzo[4,5]thieno[2,3-d] pyrimidin-4-amine, dihydrochloride]	–
< 15 min	CC(C)Cc1cc2c(NCCCNC(C)c3cccc(F)c3)ncnc2s1 (centres unmarked) [Example B27, N-(3-(1-(3-fluorophenyl)ethylamino)propyl)-6-isobutylthieno[2,3-d]pyrimidin-4-amine, dihydrochloride]	–
11 min	Fc1cccc(C(N2CCC(Nc3ncnc4sc5c(c34)CCCC5)CC2)C(F)(F)F)c1 (centres unmarked) [Example B28, N-(1-(2,2,2-trifluoro-1-(3-fluorophenyl)ethyl)piperidin-4-yl)5,6,7,8-tetrahydro-benzo[4,5]thieno[2,3-d]pyrimidin-4-amine, dihydrochloride]	–
18 min	CC(C)Cc1cc2c(N3CCC(NCc4cc(F)cc(F)c4)CC3)ncnc2s1 [Example B29, N-(3,5-difluorobenzyl)-1-(6-isobutylthieno[2,3-d]pyrimidin-4-yl) piperidin-4-amine, dihydrochloride]	–
< 15 min	Cc1sc2ncnc(NC3CCN(CC4CCCCC4)CC3)c2c1C [Example B35, N-(1-(cyclohexylmethyl)piperidin-4-yl)-5,6-dimethylthieno[2,3-d]pyrimidin-4-amine, dihydrochloride]	hERG (% Inhibition at 1 uM) [1]: hERG (% Inhibition at 1 uM): 91.7
–	Cc1sc2ncnc(NC3CCN(Cc4ccccc4C#N)CC3)c2c1C [Example B36, 2-((4-(5,6-dimethylthieno[2,3-d]pyrimidin-4-ylamino)piperidin-1-yl)methyl)benzonitrile, dihydrochloride]	hERG (% Inhibition at 1 uM) [1]: hERG (% Inhibition at 1 uM): 21.7
11 min	Cc1c(Cl)sc2ncnc(NC3CCN(Cc4cccc(F)c4)CC3)c12 [Example B37, N-(1-(3-fluorobenzyl)piperidin-4-yl)-6-chloro-5-methylthieno[2,3-d]pyrimidin-4-amine, dihydrochloride]	–
< 15 min	Cc1c(Cl)sc2ncnc(NC3CCN(Cc4ccccc4C#N)CC3)c12 [Example B39, 2-((4-(6-chloro-5-methylthieno[2,3-d]pyrimidin-4-ylamino)piperidin-1-yl)methyl) benzonitrile, dihydrochloride]	–
< 15 min	COc1ccccc1CN1CCC(Nc2ncnc3sc(Cl)c(C)c23)CC1 [Example B40, N-(1-(2-methoxybenzyl)piperidin-4-yl)-6-chloro-5-methylthieno[2,3-d] pyrimidin-4-amine, dihydrochloride]	–
86 min	NC(=O)c1cccc(CN2CCC(Nc3ncnc4sc(Cl)cc34)CC2)c1 [Example B45, 3-((4-(6-chlorothieno [2,3-d]pyrimidin-4-ylamino)piperidin-1-yl)methyl) benzamide, monomaleate]	–
< 15 min	Fc1ccccc1CN1CCC(Nc2ncnc3sc(Cl)cc23)CC1 [Example B46, N-(1-(2-fluorobenzyl)piperidin-4-yl)-6-chlorothieno[2,3-d]pyrimidin-4-amine, monomaleate]	hERG (% Inhibition at 1 uM) [1]: hERG (% Inhibition at 1 uM): 39.5
60 min	Clc1cc2c(NC3CCN(Cc4cncnc4)CC3)ncnc2s1 [Example B49, 6-chloro-N-(1-((pyrimidin-5-yl)methyl)piperidin-4-yl)thieno[2,3-d] pyrimidin-4-amine, monomaleate]	–
10 min	N#Cc1ccc(F)c(CN2CCC(Nc3ncnc4sc(Cl)cc34)CC2)c1 [Example B51, 3-((4-(6-chlorothieno [2,3-d]pyrimidin-4-ylamino)piperidin-1-yl)methyl)-4-fluorobenzonitrile, monomaleate]	–
11 min	Clc1cccc(CN2CCC(Nc3ncnc4sc(Cl)cc34)CC2)c1 [Example B52, N-(1-(3-chlorobenzyl)piperidin-4-yl)-6-chlorothieno[2,3-d]pyrimidin-4-amine, monomaleate]	–
8 min	CC(C)c1c(Cl)sc2ncnc(NC3CCN(Cc4cccc(F)c4)CC3)c12 [Example B53, N-(1-(3-fluorobenzyl)piperidin-4-yl)-6-chloro-5-isopropylthieno[2,3-d]pyrimidin-4-amine, monomaleate]	–
16 min	FC(F)(F)c1cccc(CN2CCC(Nc3ncnc4sc(Cl)cc34)CC2)c1 [Example B54, N-(1-(3-(trifluoromethyl)benzyl)piperidin-4-yl)-6-chlorothieno[2,3-d]pyrimidin-4-amine, monomaleate]	–

SMILES	half-life [3]	further results
Fc1cc(F)cc(CN2CCC(Nc3ncnc4sc(Cl)cc34)CC2)c1 [Example B33, N-(1-(3,5-difluorobenzyl)piperidin-4-yl)-6-chlorothieno[2,3-d]pyrimidin-4-amine, dihydrochloride]	13 min	hERG (% Inhibition at 1 uM) [1]: hERG (% Inhibition at 1 uM): 22.8
Fc1cccc(CN2CCC(Nc3ncnc4sc(Cl)cc34)CC2)c1 [Example B41, N-(1-(3-fluorobenzyl)piperidin-4-yl)-6-chlorothieno[2,3-d]pyrimidin-4-amine, dihydrochloride]	10 min	–
